Converted amounts (≈) assume the structure as drawn. The source made the active and inactive calls. The rule behind the calls is not given here.
Assays:
[1] = test system: HepG2; test: Cytotoxicity against human HepG2 cells assessed as reduction in cell viability by XTT assay; format: cell-based
[2] = test system: Candida duobushaemulonii; test: Antifungal activity against Candida duobushaemulonis CBS 7799 by CLSI standard M27 broth microdilution method; format: functional; conditions: Candidozyma duobushaemuli
[3] = Selectivity index, ratio of HA50 to human RCB to MIC of antifungal activity against Candida tropicalis ATCC 200956; format: toxicity; conditions: human red blood cells (RCB)
[4] = test system: [Candida] auris; test: Antifungal activity against Candida auris CBS 12766 by CLSI standard M27 broth microdilution method; format: functional; conditions: Candidozyma auris
[5] = test system: Candida tropicalis; test: Antifungal activity against Candida tropicalis ATCC 200956 by CLSI standard M27 broth microdilution method; format: functional
[6] = test system: [Candida] auris; test: Antifungal activity against Candida auris CBS 10913 by CLSI standard M27 broth microdilution method; format: functional; conditions: Candidozyma auris
[7] = Selectivity index, ratio of CC50 of human HepG2 cells to MIC of antifungal activity against Candida tropicalis ATCC 200956; format: toxicity
[8] = Antifungal activity against Candida pseudohaemulonis CBS 10004 by broth microdilution method; format: functional; conditions: Candidozyma pseudohaemuli
[9] = test system: Erythrocyte; test: Hemolytic activity in human RBC by spectrophotometry; format: ADME, cell-based
[10] = test system: Cryptococcus gattii; test: Fungicidal activity against Cryptococcus gattii ATCC 56990 assessed as loss of fungal growth by CLSI method; format: functional, organism-based; conditions: Cryptococcus bacillisporus
[11] = test system: Cryptococcus neoformans; test: Fungicidal activity against Cryptococcus neoformans ATCC 208821 assessed as loss of fungal growth by CLSI method; format: functional, organism-based
[12] = test system: Aspergillus niger; test: Antifungal activity against Aspergillus niger by CLSI standard M38 broth microdilution method; format: functional, organism-based
[13] = test system: Aspergillus fumigatus; test: Antifungal activity against Aspergillus fumigatus ATCC 16913 by CLSI standard M38 broth microdilution method; format: functional, organism-based

SMILES: CC[C@H](C)C[C@H](C)CCCCCCCCC(=O)N[C@H]1C[C@@H](O)[C@@H](NCCN)NC(=O)[C@@H]2[C@@H](O)CCN2C(=O)[C@H]([C@H](O)CCN)NC(=O)[C@H]([C@H](O)[C@@H](O)c2ccc(O)cc2)NC(=O)[C@@H]2C[C@@H](O)CN2C(=O)[C@H]([C@@H](C)O)NC1=O [CASPOFUNGIN]
- CC50 [1]: 32 µg/mL (≈ 29.3 µM)
- MIC [2]: 0.25 µg/mL (≈ 0.229 µM)
- selectivity ratio [3]: ≥ 16
- MIC [4]: 0.25 µg/mL (≈ 0.229 µM)
- MIC [5]: ≤ 0.03 µg/mL
- MIC [6]: 0.12 µg/mL (≈ 0.11 µM)
- selectivity ratio [7]: 16
- MIC [8]: 0.5 µg/mL (≈ 0.457 µM)

SMILES: C[C@@H]1[C@H](O)[C@@H](C)/C=C/C=C/C=C/C=C/C=C/C=C/C=C/[C@H](O[C@@H]2O[C@H](C)[C@@H](O)[C@H](N)[C@@H]2O)C[C@@H]2O[C@](O)(C[C@@H](O)C[C@@H](O)[C@H](O)CC[C@@H](O)C[C@@H](O)CC(=O)O[C@H]1C)C[C@H](O)[C@H]2C(=O)O [AMPHOTERICIN B]
- CC50 [1]: 4 µg/mL (≈ 4.33 µM)
- MIC [2]: 4 µg/mL (≈ 4.33 µM)
- selectivity ratio [3]: ≥ 68
- MIC [4]: 2 µg/mL (≈ 2.16 µM)
- Activity [9]: 17 µg/mL
- MIC [5]: ≤ 0.03 µg/mL
- MIC [6]: 0.5 µg/mL (≈ 0.541 µM)
- selectivity ratio [7]: ≥ 16
- MIC [8]: 8 µg/mL (≈ 8.66 µM)

SMILES: C[C@H]1OC(c2ccc(I)cc2O)=N[C@H]1C(=O)OCc1ccccc1
- CC50 [1]: 62 µg/mL (≈ 142 µM)
- selectivity ratio [3]: ≥ 128
- Activity [9]: > 128 µg/mL
- MIC [5]: ≤ 0.03 µg/mL
- selectivity ratio [7]: ≥ 62

SMILES: COC(=O)C1N=C(c2cc(Cl)c3ccccc3c2O)O[C@H]1C (single isomer, unassigned)
- CC50 [1]: 11 µg/mL (≈ 34.4 µM)
- selectivity ratio [3]: ≥ 16
- Activity [9]: > 128 µg/mL
- MIC [5]: 0.25 µg/mL (≈ 0.782 µM)
- selectivity ratio [7]: 1

SMILES: C[C@@H]1OC(c2cc(Cl)c3ccccc3c2O)=N[C@@H]1C(=O)OCc1ccccc1
- CC50 [1]: 15 µg/mL (≈ 37.9 µM)
- selectivity ratio [3]: ≥ 64
- Activity [9]: > 128 µg/mL
- MIC [5]: 0.06 µg/mL (≈ 0.152 µM)
- selectivity ratio [7]: 8

SMILES: C[C@H]1OC(c2ccc(Cl)cc2O)=N[C@H]1C(=O)OCc1ccccc1
- CC50 [1]: 95 µg/mL (≈ 275 µM)
- MIC [2]: 0.5 µg/mL (≈ 1.45 µM)
- selectivity ratio [3]: ≥ 512
- Activity [10]: Active
- Activity [11]: Active
- MIC [4]: 2 µg/mL (≈ 5.78 µM)
- Activity [9]: > 128 µg/mL
- MIC [5]: ≤ 0.03 µg/mL
- inhibition [12]: Active
- MIC [6]: 0.06 µg/mL (≈ 0.174 µM)
- selectivity ratio [7]: ≥ 380
- inhibition [13]: Active
- MIC [8]: 0.25 µg/mL (≈ 0.723 µM)

SMILES: C[C@@H]1OC(c2cc(Cl)c3ccccc3c2O)=N[C@@H]1C(=O)OC[C@H]1COC(C)(C)O1
- CC50 [1]: 7.2 µg/mL (≈ 17.1 µM)
- selectivity ratio [3]: ≥ 16
- Activity [9]: > 128 µg/mL
- MIC [5]: ≤ 0.03 µg/mL
- selectivity ratio [7]: ≥ 1

SMILES: C[C@@H]1OC(c2cc(Cl)c3ccccc3c2O)=NC1C(=O)Nc1ccccc1NC(=O)[C@@H]1N=C(c2cc(Cl)c3ccccc3c2O)O[C@@H]1C (single isomer, unassigned)
- CC50 [1]: 90 µg/mL (≈ 132 µM)
- selectivity ratio [3]: ≥ 32
- Activity [9]: > 128 µg/mL
- MIC [5]: ≤ 0.03 µg/mL
- selectivity ratio [7]: ≥ 23

SMILES: C[C@H]1OC(c2cc(F)ccc2O)=N[C@H]1C(=O)OCc1ccccc1
- CC50 [1]: > 128 µg/mL
- selectivity ratio [3]: ≥ 128
- Activity [9]: > 128 µg/mL
- MIC [5]: ≤ 0.03 µg/mL
- selectivity ratio [7]: ≥ 128

SMILES: OC(Cn1cncn1)(Cn1cncn1)c1ccc(F)cc1F [FLUCONAZOLE]
- CC50 [1]: > 128 µg/mL
- MIC [2]: > 64 µg/mL
- selectivity ratio [3]: ≥ 1
- MIC [4]: > 0.064 µg/mL
- Activity [9]: > 128 µg/mL
- MIC [5]: 1 µg/mL (≈ 3.27 µM)
- MIC [6]: 2 µg/mL (≈ 6.53 µM)
- selectivity ratio [7]: ≥ 1
- MIC [8]: 16 µg/mL (≈ 52.2 µM)

SMILES: CCNC(=O)C1N=C(c2cc(Cl)c3ccccc3c2O)O[C@H]1C (single isomer, unassigned)
- selectivity ratio [3]: ≥ 128
- Activity [9]: > 128 µg/mL
- MIC [5]: 0.06 µg/mL (≈ 0.18 µM)
- selectivity ratio [7]: ≥ 128

SMILES: COC(=O)[C@H]1N=C(c2ccc3ccccc3c2O)O[C@H]1C
- CC50 [1]: 84 µg/mL (≈ 294 µM)
- selectivity ratio [3]: ≥ 8
- Activity [9]: > 128 µg/mL
- MIC [5]: 0.06 µg/mL (≈ 0.21 µM)
- selectivity ratio [7]: 5

SMILES: C[C@@H]1OC(c2cc(Br)c3ccccc3c2O)=N[C@@H]1C(=O)OCc1ccccc1 (single isomer, unassigned)
- CC50 [1]: 9 µg/mL (≈ 20.4 µM)
- selectivity ratio [3]: ≥ 256
- Activity [9]: > 128 µg/mL
- MIC [5]: ≤ 0.03 µg/mL
- selectivity ratio [7]: ≥ 18

SMILES: C=CCOC(=O)C1N=C(c2cc(Cl)c3ccccc3c2O)O[C@H]1C (single isomer, unassigned)
- CC50 [1]: 11 µg/mL (≈ 31.8 µM)
- selectivity ratio [3]: ≥ 128
- Activity [9]: > 128 µg/mL
- MIC [5]: ≤ 0.03 µg/mL
- selectivity ratio [7]: ≥ 11

SMILES: C[C@H]1OC(c2ccc(N=[N+]=[N-])cc2O)=N[C@H]1C(=O)OCc1ccccc1
- CC50 [1]: 100 µg/mL (≈ 284 µM)
- selectivity ratio [3]: ≥ 128
- Activity [9]: > 128 µg/mL
- MIC [5]: ≤ 0.03 µg/mL
- selectivity ratio [7]: ≥ 100

SMILES: C[C@H]1OC(c2cc(Br)ccc2O)=N[C@H]1C(=O)OCc1ccccc1
- CC50 [1]: 88 µg/mL (≈ 226 µM)
- selectivity ratio [3]: ≥ 128
- Activity [9]: > 128 µg/mL
- MIC [5]: ≤ 0.03 µg/mL
- selectivity ratio [7]: ≥ 88

SMILES: COc1ccc(O)c(C2=N[C@@H](C(=O)OCc3ccccc3)[C@@H](C)O2)c1
- CC50 [1]: 100 µg/mL (≈ 293 µM)
- selectivity ratio [3]: ≥ 32
- Activity [9]: > 128 µg/mL
- MIC [5]: ≤ 0.03 µg/mL
- selectivity ratio [7]: 25

SMILES: C[C@H]1OC(c2ccccc2O)=N[C@H]1C(=O)OCc1ccccc1
- CC50 [1]: 102 µg/mL (≈ 328 µM)
- selectivity ratio [3]: ≥ 32
- Activity [9]: > 128 µg/mL
- MIC [5]: ≤ 0.03 µg/mL
- selectivity ratio [7]: ≥ 26

SMILES: C[C@H]1OC(c2cc(I)ccc2O)=N[C@H]1C(=O)OCc1ccccc1
- CC50 [1]: 64 µg/mL (≈ 146 µM)
- selectivity ratio [3]: ≥ 128
- Activity [9]: > 128 µg/mL
- MIC [5]: ≤ 0.03 µg/mL
- selectivity ratio [7]: ≥ 64

SMILES: CCNC(=O)[C@H]1N=C(c2ccc3ccccc3c2O)O[C@H]1C
- CC50 [1]: > 128 µg/mL
- selectivity ratio [3]: ≥ 128
- Activity [9]: > 128 µg/mL
- MIC [5]: ≤ 0.03 µg/mL
- selectivity ratio [7]: ≥ 128

SMILES: C[C@H]1OC(c2ccc(Br)cc2O)=N[C@H]1C(=O)OCc1ccccc1
- CC50 [1]: 62 µg/mL (≈ 159 µM)
- selectivity ratio [3]: ≥ 128
- Activity [9]: > 128 µg/mL
- MIC [5]: 0.06 µg/mL (≈ 0.154 µM)
- selectivity ratio [7]: 62

SMILES: C[C@@H]1OC(c2cc(Cl)c3ccccc3c2O)=NC1C(=O)Nc1ccc2ncsc2c1 (single isomer, unassigned)
- CC50 [1]: 16 µg/mL (≈ 36.5 µM)
- MIC [2]: 0.06 µg/mL (≈ 0.137 µM)
- selectivity ratio [3]: ≥ 1070
- Activity [10]: Active
- Activity [11]: Active
- MIC [4]: 2 µg/mL (≈ 4.57 µM)
- Activity [9]: > 128 µg/mL
- MIC [5]: ≤ 0.03 µg/mL
- inhibition [12]: Active
- MIC [6]: 0.06 µg/mL (≈ 0.137 µM)
- selectivity ratio [7]: ≥ 133
- inhibition [13]: Active
- MIC [8]: 0.03 µg/mL (≈ 0.0685 µM)

SMILES: C[C@@H]1OC(c2ccc3ccccc3c2O)=N[C@@H]1C(=O)OCc1ccccc1
- CC50 [1]: 88 µg/mL (≈ 243 µM)
- selectivity ratio [3]: ≥ 256
- Activity [9]: > 128 µg/mL
- MIC [5]: ≤ 0.03 µg/mL
- selectivity ratio [7]: ≥ 176

SMILES: C#CCNC(=O)C1N=C(c2cc(Cl)c3ccccc3c2O)O[C@H]1C (single isomer, unassigned)
- CC50 [1]: 33 µg/mL (≈ 96.3 µM)
- selectivity ratio [3]: ≥ 512
- Activity [9]: > 128 µg/mL
- MIC [5]: ≤ 0.03 µg/mL
- selectivity ratio [7]: ≥ 132

SMILES: C[C@@H]1OC(c2cc(Cl)c3ccccc3c2O)=NC1C(=O)OCc1ccoc1 (single isomer, unassigned)
- CC50 [1]: 6 µg/mL (≈ 15.6 µM)
- selectivity ratio [3]: ≥ 32
- Activity [9]: > 128 µg/mL
- MIC [5]: ≤ 0.03 µg/mL
- selectivity ratio [7]: ≥ 2

SMILES: C[C@@H](O)[C@H](NC(=O)c1ccc2ccccc2c1O)C(=O)OCc1ccccc1
- CC50 [1]: 40 µg/mL (≈ 105 µM)
- selectivity ratio [3]: > 8
- Activity [9]: > 128 µg/mL
- MIC [5]: 8 µg/mL (≈ 21.1 µM)
- selectivity ratio [7]: 3

SMILES: COc1cccc(O)c1C1=N[C@@H](C(=O)OCc2ccccc2)[C@@H](C)O1
- CC50 [1]: 101 µg/mL (≈ 296 µM)
- selectivity ratio [3]: ≥ 8
- Activity [9]: > 128 µg/mL
- MIC [5]: 0.12 µg/mL (≈ 0.352 µM)
- selectivity ratio [7]: 6

SMILES: C[C@@H]1OC(c2cc(Cl)c3ccccc3c2O)=N[C@@H]1C(=O)OC/C=C/c1ccccc1
- CC50 [1]: 10 µg/mL (≈ 23.7 µM)
- selectivity ratio [3]: ≥ 8
- Activity [9]: > 128 µg/mL
- MIC [5]: ≤ 0.03 µg/mL
- selectivity ratio [7]: ≥ 1

Source: ChEMBL document CHEMBL4725493, “Novel 2-Aryloxazoline Compounds Exhibit an Inhibitory Effect on Candida spp., Including Antifungal-Resistant Isolates” (ACS Med Chem Lett, 2020)
